The text below walks through data of patent publication US20230013669A1, “Antibacterial Treatment Using a Cannabinoid and an Active Agent” (priority 2019, published 2023).

For test [1], the system named is Klebsiella pneumoniae ATCC 700603. As to the kind of experiment: MIC micro-broth dilution assay (Example 1 method). In kind it is cell-based. To be noted: Klebsiella pneumoniae, ATCC700603; CBD alone; read-out: CBD MIC. The procedure:
Methods were as for Example 1. Cannabidiol was tested in combination with cefotetan.
Methods were as for Example 1. Cannabidiol was tested in combination with aztreonam.
Methods were as for Example 1. Cannabidiol was tested in combination with cefepime.
Methods were as for Example 1. Cannabidiol was tested in combination with octapeptin C4.
Methods were as for Example 1. Cannabidiol was tested in combination with Spero SPR206. The experiments were carried out three times.

Test [2] has as its system Escherichia coli ATCC 25922 (GN_001). As to the kind of experiment: MIC micro-broth dilution assay (Example 1 method). In kind it is cell-based. To be noted: for MIC: ATCC25922.

In brackets after ≈: the same amount, converted by molar mass. Where two headings read alike, the source gives them in different places.

Regarding `C=C(C)C1CCC(C)=CC1c1c(O)cc(CCCCC)cc1O` (stereo not shown) [Cannabidiol, 2-[3-methyl-6-(1-methylethenyl)-2-cyclohexen-1-yl]-5-pentyl-1,3-benzenediol], the MIC in test [1] is 256 µg/mL; in test [2] (CBD alone, Escherichia coli ATCC 25922, read-out: CBD MIC) it was 256 µg/mL (≈ 814 µM); in test [2] (Escherichia coli, Example 1 Table 3, GN_001, compound alone, replicates, read-out: Minimal Inhibitory Concentration (MIC)), more than 256 µg/mL; in test [2] (Escherichia coli, Example 3 Table 11, GN_001, compound alone, replicates, read-out: Minimum Inhibitory Concentration (MIC)), more than 256 µg/mL. The “CBD MIC” value in test [2] (CBD alone) was found to be 256 µg/mL; in test [2] (Escherichia coli ATCC 25922, CBD alone), 256 µg/mL. Moreover, the “Minimal Inhibitory Concentration (MIC)” value is more than 256 µg/mL in test [2] (Example 1 Table 3, GN_001, compound alone, replicates) and more than 256 µg/mL in test [2] (Example 7 Table 27, GN_001, compound alone, replicates). The “Minimum Inhibitory Concentration (MIC)” value in test [2] (Example 3 Table 11, GN_001, compound alone, replicates) was more than 256 µg/mL; in test [2] (Example 6 Table 23, GN_001, compound alone, replicates), more than 256 µg/mL.
